Experimental data taken from ChEMBL document CHEMBL3885881, “DrugMatrix”.

Species: Rattus norvegicus
Experiment: DrugMatrix - Regimen: Daily Repeat
Format: toxicity, organism-based, Sprague-Dawley
Set-up: regimen Daily Repeat, gender Male, age 6-8 weeks
Conditions: in vivo, po, route oral GAVAGE, vehicle 100 % WATER; for ABSOLUTE BASOPHIL / ABSOLUTE EOSINOPHIL / ABSOLUTE LYMPHOCYTE / ABSOLUTE MONOCYTE / ABSOLUTE SEGMENTED NEUTROPHIL / BASOPHIL / EOSINOPHIL / ERYTHROCYTE COUNT / HEMATOCRIT / HEMOGLOBIN / LEUKOCYTE COUNT / LYMPHOCYTE / MEAN CORPUSCULAR HEMOGLOBIN / MEAN CORPUSCULAR HEMOGLOBIN CONCENTRATION / MEAN CORPUSCULAR VOLUME / MONOCYTE / NEUTROPHIL / NUCLEATED RED BLOOD CELLS / PLATELET COUNT: tissue Blood; for ALANINE AMINOTRANSFERASE / ALBUMIN / ALKALINE PHOSPHATASE / ASPARTATE AMINOTRANSFERASE / BLOOD UREA NITROGEN / CARBON DIOXIDE / CHLORIDE / CHOLESTEROL / CREATINE PHOSPHOKINASE / CREATININE / GLUCOSE / LACTATE DEHYDROGENASE / LIPASE / PHOSPHORUS / POTASSIUM / SODIUM / TOTAL BILIRUBIN / TOTAL PROTEIN / URIC ACID: tissue Plasma
[1] = 120 mg/kg, 120 h, dose level Low, time 5 day
[2] = 1200 mg/kg, 72 h, dose level High, time 3 day
[3] = 1200 mg/kg, 120 h, dose level High, time 5 day

SMILES: CCN(CC)CCNC(=O)c1cc(S(C)(=O)=O)ccc1OC [TIAPRIDE]
- ABSOLUTE BASOPHIL [1]: 0 CELLS/uL
- ABSOLUTE EOSINOPHIL [1]: 28 CELLS/uL
- ABSOLUTE LYMPHOCYTE [1]: 7405.67 CELLS/uL
- ABSOLUTE MONOCYTE [1]: 0 CELLS/uL
- ABSOLUTE SEGMENTED NEUTROPHIL [1]: 299.67 CELLS/uL
- BASOPHIL [1]: 0%
- EOSINOPHIL [1]: 0.33%
- ERYTHROCYTE COUNT [1]: 5.54 x10E6/uL
- HEMATOCRIT [1]: 34.8%
- HEMOGLOBIN [1]: 13.1 G/DL
- LEUKOCYTE COUNT [1]: 7.73 x10E3/uL
- LYMPHOCYTE [1]: 95.67%
- MEAN CORPUSCULAR HEMOGLOBIN [1]: 23.67 pg
- MEAN CORPUSCULAR HEMOGLOBIN CONCENTRATION [1]: 37.7 G/DL
- MEAN CORPUSCULAR VOLUME [1]: 62.73 fL
- MONOCYTE [1]: 0%
- NEUTROPHIL [1]: 4%
- NUCLEATED RED BLOOD CELLS [1]: 0 /100WBC
- PLATELET COUNT [1]: 1102.33 x10E3/uL
- ALANINE AMINOTRANSFERASE [1]: 42 u/L
- ALBUMIN [1]: 4.3 G/DL
- ALKALINE PHOSPHATASE [1]: 382 u/L
- ASPARTATE AMINOTRANSFERASE [1]: 80.33 u/L
- BLOOD UREA NITROGEN [1]: 15.33 mg/dL
- CARBON DIOXIDE [1]: 27.67 mmol/L
- CHLORIDE [1]: 103 MEQ/L
- CHOLESTEROL [1]: 70.67 mg/dL
- CREATINE PHOSPHOKINASE [1]: 223.33 u/L
- CREATININE [1]: 0.19 mg/dL
- GLUCOSE [1]: 142.33 mg/dL
- LACTATE DEHYDROGENASE [1]: 132.33 u/L
- LIPASE [1]: 8.33 u/L
- PHOSPHORUS [1]: 11.83 mg/dL
- POTASSIUM [1]: 6.07 MEQ/L
- SODIUM [1]: 149.23 MEQ/L
- TOTAL BILIRUBIN [1]: 0.27 mg/dL
- TOTAL PROTEIN [1]: 6.03 G/DL
- URIC ACID [1]: 0.97 mg/dL
- ABSOLUTE BASOPHIL [2]: 0 CELLS/uL
- ABSOLUTE EOSINOPHIL [2]: 187.33 CELLS/uL
- ABSOLUTE LYMPHOCYTE [2]: 11272.67 CELLS/uL
- ABSOLUTE MONOCYTE [2]: 0 CELLS/uL
- ABSOLUTE SEGMENTED NEUTROPHIL [2]: 806.67 CELLS/uL
- BASOPHIL [2]: 0%
- EOSINOPHIL [2]: 1.33%
- ERYTHROCYTE COUNT [2]: 6.23 x10E6/uL
- HEMATOCRIT [2]: 38.93%
- HEMOGLOBIN [2]: 14.8 G/DL
- LEUKOCYTE COUNT [2]: 12.27 x10E3/uL
- LYMPHOCYTE [2]: 92.33%
- MEAN CORPUSCULAR HEMOGLOBIN [2]: 23.73 pg
- MEAN CORPUSCULAR HEMOGLOBIN CONCENTRATION [2]: 38.03 G/DL
- MEAN CORPUSCULAR VOLUME [2]: 62.5 fL
- MONOCYTE [2]: 0%
- NEUTROPHIL [2]: 6.33%
- NUCLEATED RED BLOOD CELLS [2]: 0 /100WBC
- PLATELET COUNT [2]: 1394 x10E3/uL
- ALANINE AMINOTRANSFERASE [2]: 38 u/L
- ALBUMIN [2]: 4.53 G/DL
- ALKALINE PHOSPHATASE [2]: 408 u/L
- ASPARTATE AMINOTRANSFERASE [2]: 80 u/L
- BLOOD UREA NITROGEN [2]: 22.33 mg/dL
- CARBON DIOXIDE [2]: 23.33 mmol/L
- CHLORIDE [2]: 107 MEQ/L
- CHOLESTEROL [2]: 76.33 mg/dL
- CREATINE PHOSPHOKINASE [2]: 431 u/L
- CREATININE [2]: 0.22 mg/dL
- GLUCOSE [2]: 189.67 mg/dL
- LACTATE DEHYDROGENASE [2]: 523.33 u/L
- LIPASE [2]: 8.33 u/L
- PHOSPHORUS [2]: 14.8 mg/dL
- POTASSIUM [2]: 6.75 MEQ/L
- SODIUM [2]: 147.23 MEQ/L
- TOTAL BILIRUBIN [2]: 0.27 mg/dL
- TOTAL PROTEIN [2]: 6.37 G/DL
- URIC ACID [2]: 1.9 mg/dL
- ABSOLUTE BASOPHIL [3]: 0 CELLS/uL
- ABSOLUTE EOSINOPHIL [3]: 212 CELLS/uL
- ABSOLUTE LYMPHOCYTE [3]: 15513 CELLS/uL
- ABSOLUTE MONOCYTE [3]: 0 CELLS/uL
- ABSOLUTE SEGMENTED NEUTROPHIL [3]: 1775 CELLS/uL
- BASOPHIL [3]: 0%
- EOSINOPHIL [3]: 1%
- ERYTHROCYTE COUNT [3]: 5.86 x10E6/uL
- HEMATOCRIT [3]: 36.5%
- HEMOGLOBIN [3]: 13.9 G/DL
- LEUKOCYTE COUNT [3]: 17.5 x10E3/uL
- LYMPHOCYTE [3]: 89.33%
- MEAN CORPUSCULAR HEMOGLOBIN [3]: 23.73 pg
- MEAN CORPUSCULAR HEMOGLOBIN CONCENTRATION [3]: 38.1 G/DL
- MEAN CORPUSCULAR VOLUME [3]: 62.33 fL
- MONOCYTE [3]: 0%
- NEUTROPHIL [3]: 9.67%
- NUCLEATED RED BLOOD CELLS [3]: 0 /100WBC
- PLATELET COUNT [3]: 1226 x10E3/uL
- ALANINE AMINOTRANSFERASE [3]: 48.67 u/L
- ALBUMIN [3]: 4.17 G/DL
- ALKALINE PHOSPHATASE [3]: 452.67 u/L
- ASPARTATE AMINOTRANSFERASE [3]: 83.67 u/L
- BLOOD UREA NITROGEN [3]: 17.33 mg/dL
- CARBON DIOXIDE [3]: 26.33 mmol/L
- CHLORIDE [3]: 102.67 MEQ/L
- CHOLESTEROL [3]: 66 mg/dL
- CREATINE PHOSPHOKINASE [3]: 508.33 u/L
- CREATININE [3]: 0.27 mg/dL
- GLUCOSE [3]: 161.67 mg/dL
- LACTATE DEHYDROGENASE [3]: 191.33 u/L
- LIPASE [3]: 8 u/L
- PHOSPHORUS [3]: 14.53 mg/dL
- POTASSIUM [3]: 6.21 MEQ/L
- SODIUM [3]: 146.03 MEQ/L
- TOTAL BILIRUBIN [3]: 0.27 mg/dL
- TOTAL PROTEIN [3]: 6.03 G/DL
- URIC ACID [3]: 1.73 mg/dL
